The results in this text go back to patent US9884812B2, “Use of DDX3X inhibitors for the treatment of pneumovirus infections” (priority 2014, dated 2018).

In one data set the test system is HEp2 or BSC1 cells. Kind of data set: Toxicity to cells in the TCID50 screen (mock control). Format: cell-based. The following applies: cellular RSV TCID50 assay tables. The method, then:
This method provides a rapid approach to initially screen compounds and was developed as an increased number of compounds were synthesised. […] Virus was then added over 5 different half log dilutions starting at a multiplicity of infection of 0.02 plus mock control. Three dilutions of compound plus a DMSO control were screened per plate. […] Identical plate repeats for each compound dilution were fixed in subsequent days as indicated.

A short description of data set [1]: Solubility in cell medium. Type of data set: physicochemical. The following applies: solution of ligand in DMSO (20 mM) diluted in cell media to 100 μM; scale from 'very poor' (almost insoluble) to 'very good' (freely soluble over extended periods at 4° C.).

For the molecule `Cc1ccccc1NC(=O)NCCN(C)C` [Compound 26, 3-[2-(dimethylamino)ethyl]1-(2-methylphenyl)urea], the Toxicity result in the data set with HEp2 or BSC1 cells is recorded as “low”. Moreover, the “Solubility in cell medium” value in data set [1] is “good”.
The matching figures for `Cc1ccccc1NC(=O)Nc1cccnc1` [Compound 10, 1-(2-methylphenyl)-3-(pyridin-3-yl)urea]: “low” and “moderate”.
The matching figures for `Cc1ccccc1NC(=S)NCCN(C)C` [Compound 29, 3-[2-(dimethylamino)ethyl]-1-(2-methylphenyl)thiourea]: “low” and “good”.
Regarding `CC(=O)c1cccc(NC(=O)Nc2ccccc2C)c1` [Compound 2, 1-(3-acetylphenyl)-3-(2-methylphenyl)urea], the Toxicity entry in the data set with HEp2 or BSC1 cells is recorded as “very low”. In addition, the “Solubility in cell medium” value in data set [1] is listed as “good”.
The matching figures for `CC1CCCCC1NC(=O)Nc1cccc([N+](=O)[O-])c1` (stereo not shown) [Compound 21, 3-(2-methylcyclohexyl)-1-(3-nitrophenyl)urea]: “toxic at 100 μM” and “moderate”.
The like results for `Cc1ccccc1NC(=O)NCCCOCCOCCOCCCNC(=O)Nc1ccccc1C` [Compound 38, 1-(2-methylphenyl)-3-(3-{2-[2-(3-{[(2-methylphenyl)carbamoyl]-amino}propoxy)ethoxy]ethoxy}propyl)urea] were, in that order, “toxic at 50 μM” and “good”.
The matching figures for `N#Cc1cccc(NC(=O)Nc2ncccn2)c1` [Compound 12, 3-(3-cyanophenyl)-1-(pyrimidin-2-yl)urea]: “toxic at 100 μM” and “poor”.
For the molecule `CC1CCCCC1NC(=O)Nc1ccc(C#N)cc1` (stereo not shown) [Compound 22, 1-(4-cyanophenyl)-3-(2-methylcyclohexyl)urea], in the data set on HEp2 or BSC1 cells, the Toxicity result is recorded as “low”. Besides, the “Solubility in cell medium” value in data set [1] was “moderate”.
On to `Cc1ccccc1NC(=O)Nc1ccc(Br)cc1` [Compound 41, 1-(4-bromophenyl)-3-(o-tolyl)urea], for which the Toxicity result in the data set with HEp2 or BSC1 cells is “Low”. In addition, the “Solubility in cell medium” value in data set [1] was “Moderate at 100 μM”.
The like results for `Cc1ccccc1NC(=O)Nc1cccc([S+](C)[O-])c1` (stereo not shown) [Compound 5, 3-(3-methanesulfinylphenyl)-1-(2-methylphenyl)urea] were, in that order, “very low” and “good”.
As to `Cc1ccccc1NC(=S)Nc1cccc([N+](=O)[O-])c1` [Compound 17, 3-(2-methylphenyl)-1-(3-nitrophenyl)thiourea], the Toxicity result with HEp2 or BSC1 cells was “toxic at 100 μM”. For the same molecule, in data set [1], the “Solubility in cell medium” value is “good”.
For the molecule `CCCCCCCCNC(=O)Nc1ccccc1C` [Compound 25, 1-(2-methylphenyl)-3-octylurea], the Toxicity entry with HEp2 or BSC1 cells was “low”. Moreover, the “Solubility in cell medium” value in data set [1] is “moderate”.
In the case of `Cc1ccccc1NC(=O)Nc1ccccn1` [Compound 9, 1-(2-methylphenyl)-3-(pyridin-2-yl)urea], in the data set with HEp2 or BSC1 cells, the Toxicity entry is “low”. The “Solubility in cell medium” value in data set [1] is “good”.
The like results for `Cc1ccccc1NC(=S)Nc1cccc(C#N)c1` [Compound 18, 1-(3-cyanophenyl)-3-(2-methylphenyl)thiourea] were, in that order, “low” and “very good”.
The matching figures for `Cc1ccccc1NC(=O)N1CCOCC1` [Compound 27, N-(2-methylphenyl)morpholine-4-carboxamide]: “low” and “good”.
On to `COc1ccc(NC(=O)Nc2ccccc2C)cc1` [Compound 15, 1-(4-methoxyphenyl)-3-(2-methylphenyl)urea], for which, in the data set with HEp2 or BSC1 cells, the Toxicity result was “low”. For the same molecule, in data set [1], the “Solubility in cell medium” value is recorded as “good”.
`N#Cc1cccc(NC(=O)Nc2cccnc2)c1` [Compound 7, 3-(3-cyanophenyl)-1-(pyridin-3-yl)urea]: the Toxicity result in the data set with HEp2 or BSC1 cells was “low”. The “Solubility in cell medium” value in data set [1] is “moderate”.
